In US10301305B2 (priority 2014, dated 2019):
pIC50: −log10 of the molar value. Where a name gives a salt, the structure may show the parent alone.

Key:
Assay type in all cases: biochemical
S. Agalactiae DltA = S. Agalactiae DltA (Streptococcus agalactiae serotype III (strain NEM316), UniProt Q8VM67); assay: in vitro DltA activity assay (luminescence), S. agalactiae DltA; settings: recombinant DltA, 30 min pre-incubation, 0.5 mM D-Alanine, 0.5-5 μM ATP; read-out: S. Agalactiae DltA IC50
Procedure: (§1) The effect of the compounds of the invention on DltA enzymes has been based on the measure of their inhibition of DltA activity in vitro. To this end, recombinant proteins DltA were expressed and purified after cloning of the genes of S. aureus, E. faecalis, E. faecium and S. agalactiae as described thereafter. The capacity of the compounds of the invention to inhibit DltA enzymatic activity was assessed using the DltA assays as described below:
(§2) The dltA gene was amplified from chromosomal DNA of S. aureus, E. faecalis, E. faecium and S. agalactiae and introduced into E. coli BL21 (Invitrogen, Carlsbad, Calif.) following manufacturer's instruction. Bacteria were grown at 37° C. under aerobic conditions and isopropyl-beta-D-thiogalactopyranoside (IPTG) was added to 0.5-1 mM when OD600 of the bacterial culture had reached 0.5. After a further incubation for 3 hours, cells were harvested by centrifugation. Purification of the recombinant DltA protein was performed by affinity chromatography on nickel-nitrilotriacetic acid (Ni-NTA) column following manufacturer's instructions (Qiagen). Fractions containing recombinant DltA protein were adjusted to 50% glycerol and stored at −20° C. until use.
(§3) The binding potency of the inhibitors against DltA enzyme was assessed by IC50 determination in an in vitro DltA activity assay. The assay buffer “AB” contained 50 mM Hepes pH8.0, 10 mM MgCl2, 50 mM KCl, 0.012% Triton-X100, 10 mM DTT and 100 nM Myelin-basic protein. The following components were added in a white polystyrene Costar plate up to a final volume of 30 μL: 3 μL DMSO, or inhibitor dissolved in DMSO and 27 μL DltA enzyme in AB. After 30 min of pre-incubation at room temperature, 30 μL of Substrates mix in AB were added in each well to a final volume of 60 μL. This reaction mixture was then composed of DltA (produced in house from S. aureus, E. faecalis, E. faecium and S. agalactiae), 0.5 mM D-Alanine (Sigma), 0.5-5 μM ATP (Sigma) and 0.05 u/ml inorganic pyrophosphatase (Sigma) in assay buffer. After typically 1-2 hours of incubation at room temperature (conversion rate around 30%), 30 μL of the revelation mix were added to a final volume of 90 μL, including the following constituents at the respective final concentrations: 10000 u/ml luciferase (Sigma), 30 μM D-luciferin (Sigma), 100 μM N-acetylcysteamine (Aldrich). Luminescence intensity was immediately measured on a Fluostar Optima (BMG) (excitation 360 nm, emission 520 nm) and converted into inhibition percentages. For IC50 determinations (Inhibitory Concentration 50%) the inhibitor was added at 6 to 10 different concentrations and the related inhibitions were fitted to a classical Langmuir equilibrium model using XLFIT (IDBS).
(§4) For compounds interfering with the luminescent signal (quenching), the same experiment without DltA enzyme was performed to allow quenching determination and correction.

S. aureus DltA = S. aureus DltA (Staphylococcus aureus (strain NCTC 8325 / PS 47), UniProt Q2FZW6); assay: in vitro DltA activity assay (luminescence), S. aureus DltA; settings: recombinant DltA, 30 min pre-incubation, 0.5 mM D-Alanine, 0.5-5 μM ATP; read-out: S. aureus DltA IC50
Procedure: as §1, §2, §3, §4

E. feacalis DltA = E. feacalis DltA (Enterococcus faecalis, UniProt Q830N0); assay: in vitro DltA activity assay (luminescence), E. faecalis DltA; settings: recombinant DltA, 30 min pre-incubation, 0.5 mM D-Alanine, 0.5-5 μM ATP; read-out: E. feacalis DltA IC50
Procedure: as §1, §2, §3, §4

E. feacium DltA = E. feacium DltA (Enterococcus faecium, UniProt Q3XZT7); assay: in vitro DltA activity assay (luminescence), E. faecium DltA; settings: recombinant DltA, 30 min pre-incubation, 0.5 mM D-Alanine, 0.5-5 μM ATP; read-out: E. feacium DltA IC50
Procedure: as §1, §2, §3, §4

Chain of E. feacalis DltA (Q830N0 1-506): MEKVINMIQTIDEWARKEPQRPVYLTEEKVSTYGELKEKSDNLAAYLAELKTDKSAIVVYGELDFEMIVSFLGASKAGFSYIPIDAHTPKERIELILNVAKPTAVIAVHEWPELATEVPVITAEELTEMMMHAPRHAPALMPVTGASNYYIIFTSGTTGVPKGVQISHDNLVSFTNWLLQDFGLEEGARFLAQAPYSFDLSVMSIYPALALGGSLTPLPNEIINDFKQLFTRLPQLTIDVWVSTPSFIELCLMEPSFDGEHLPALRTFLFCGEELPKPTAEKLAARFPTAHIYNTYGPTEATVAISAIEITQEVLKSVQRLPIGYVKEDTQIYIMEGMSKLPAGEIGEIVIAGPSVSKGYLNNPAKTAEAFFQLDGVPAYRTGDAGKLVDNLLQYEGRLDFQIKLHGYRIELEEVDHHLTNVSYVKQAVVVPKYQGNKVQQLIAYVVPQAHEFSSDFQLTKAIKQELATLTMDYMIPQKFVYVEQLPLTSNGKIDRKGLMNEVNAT
Chain of E. feacium DltA (Q3XZT7 1-504): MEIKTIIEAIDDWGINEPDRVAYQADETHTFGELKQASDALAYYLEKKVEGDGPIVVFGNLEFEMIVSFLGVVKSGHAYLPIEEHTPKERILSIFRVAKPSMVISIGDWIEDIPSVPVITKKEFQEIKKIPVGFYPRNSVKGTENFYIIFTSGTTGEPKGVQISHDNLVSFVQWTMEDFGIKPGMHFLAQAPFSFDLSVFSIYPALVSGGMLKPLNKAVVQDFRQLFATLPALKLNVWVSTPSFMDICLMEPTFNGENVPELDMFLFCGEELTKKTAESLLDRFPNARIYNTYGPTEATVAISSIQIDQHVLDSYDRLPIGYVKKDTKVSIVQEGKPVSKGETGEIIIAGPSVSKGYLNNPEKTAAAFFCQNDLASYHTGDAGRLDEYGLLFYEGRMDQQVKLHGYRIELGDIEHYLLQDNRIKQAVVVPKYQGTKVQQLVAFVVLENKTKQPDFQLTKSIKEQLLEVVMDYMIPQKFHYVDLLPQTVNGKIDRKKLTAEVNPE

SMILES: c1nc2c(-c3ccc4c(c3)ncn4C3CCCCC3)cc(N3CC4CNCC4C3)cc2[nH]1 (stereo not drawn) [Example 36, 1′-Cyclohexyl-6-(hexahydro-pyrrolo[3,4-c]pyrrol-2-yl)-1H,1′H-[4,5′]bibenzimidazolyl]
- pIC50 (S. Agalactiae DltA): 5.42
- pIC50 (S. aureus DltA): 7.10
- pIC50 (E. feacalis DltA): 6.77
- pIC50 (E. feacium DltA): 5.96

SMILES: O=[N+]([O-])c1c(N2CC[C@H](CO)C2)cc(-c2ccc3c(c2)ncn3C2CCCCC2)c2nc[nH]c12 [Example 43, [(S)-1-(1′-Cyclohexyl-7-nitro-1H,1′H-[4,5′]bibenzimidazolyl-6-yl)-pyrrolidin-3-yl]-methanol]
- pIC50 (S. Agalactiae DltA): 5.20
- pIC50 (S. aureus DltA): 7.07
- pIC50 (E. feacalis DltA): 7.52
- pIC50 (E. feacium DltA): 6.77

SMILES: O=[N+]([O-])c1c(N2CC[C@H](CO)[C@@H](O)C2)cc(-c2ccc3c(c2)ncn3C2CCCCC2)c2nc[nH]c12 [Example 44, (3R,4R)-1-(1′-Cyclohexyl-7-nitro-1H,1′H-[4,5′]bibenzimidazolyl-6-yl)-4-hydroxymethyl-piperidin-3-ol]
- pIC50 (S. Agalactiae DltA): 5.82
- pIC50 (S. aureus DltA): 7.31
- pIC50 (E. feacalis DltA): 7.15
- pIC50 (E. feacium DltA): 7.02

SMILES: O=C(O)c1c(N2CC[C@H](CO)C2)cc(-c2ccc3c(c2)ncn3C2CCCCC2)c2nc[nH]c12 [Example 55, 1′-Cyclohexyl-6-((S)-3-hydroxymethyl-pyrrolidin-1-yl)-1H,1′H-[4,5′]bibenzimidazolyl-7-carboxylic acid]
- pIC50 (S. Agalactiae DltA): 6.12
- pIC50 (S. aureus DltA): 6.60
- pIC50 (E. feacalis DltA): 6.82
- pIC50 (E. feacium DltA): 6.44

SMILES: N#Cc1c(N2CC[C@H](CO)C2)cc(-c2ccc3c(c2)ncn3C2CCCCC2)c2nc[nH]c12 [Example 58, 1′-Cyclohexyl-6-((S)-3-hydroxymethyl-pyrrolidin-1-yl)-1H,1′H-[4,5′]bibenzimidazolyl-7-carbonitrile]
- pIC50 (S. Agalactiae DltA): 5.07
- pIC50 (S. aureus DltA): 6.74
- pIC50 (E. feacalis DltA): 6.92
- pIC50 (E. feacium DltA): 6.64

SMILES: N#Cc1c(N2CCC(CO)(CO)CC2)cc(-c2ccc3c(c2)ncn3C2CCCCC2)c2nc[nH]c12 [Example 61, 6-(4,4-Bis-hydroxymethyl-piperidin-1-yl)-1′-cyclohexyl-1H,1′H-[4,5′]bibenzimidazolyl-7-carbonitrile]
- pIC50 (S. Agalactiae DltA): 5.33
- pIC50 (S. aureus DltA): 6.62
- pIC50 (E. feacalis DltA): 6.96
- pIC50 (E. feacium DltA): 6.64

SMILES: NC(=O)c1c(F)cc(-c2ccc3c(c2)ncn3C2CCCCC2)c2nc[nH]c12 [Example 63, 1′-Cyclohexyl-6-fluoro-1H,1′H-[4,5′]bibenzimidazolyl-7-carboxamide]
- pIC50 (S. Agalactiae DltA): 5.70
- pIC50 (S. aureus DltA): 7.31
- pIC50 (E. feacalis DltA): 7.37
- pIC50 (E. feacium DltA): 7.08

SMILES: NC(=O)c1c(N2CC[C@H](CO)C2)cc(-c2ccc3c(c2)ncn3C2CCCCC2)c2nc[nH]c12 [Example 64, 1′-Cyclohexyl-6-((S)-3-hydroxymethyl-pyrrolidin-1-yl)-1H,1′H-[4,5′]bibenzimidazolyl-7-carboxamide]
- pIC50 (S. Agalactiae DltA): 6.15
- pIC50 (S. aureus DltA): 7.19
- pIC50 (E. feacalis DltA): 7.57
- pIC50 (E. feacium DltA): 7.17

SMILES: NC(=O)c1c(N2CC3CNCC3C2)cc(-c2ccc3c(c2)ncn3C2CCCCC2)c2nc[nH]c12 (stereo not drawn) [Example 65, 1′-Cyclohexyl-6-(hexahydro-pyrrolo[3,4-c]pyrrol-2-yl)-1H,1′H-[4,5′]bibenzimidazolyl-7-carboxylic acid amide hydrochloride]
- pIC50 (S. Agalactiae DltA): 5.74
- pIC50 (S. aureus DltA): 7.18
- pIC50 (E. feacalis DltA): 7.44
- pIC50 (E. feacium DltA): 6.85

SMILES: NC(=O)c1c(N2CCC(CCO)C2)cc(-c2ccc3c(c2)ncn3C2CCCCC2)c2nc[nH]c12 (stereo not drawn) [Example 77, 1′-Cyclohexyl-6-[3-(2-hydroxy-ethyl)-pyrrolidin-1-yl]-1H,1′H-[4,5′]bibenzimidazolyl-7-carboxamide]
- pIC50 (S. Agalactiae DltA): 5.89
- pIC50 (S. aureus DltA): 7.11
- pIC50 (E. feacalis DltA): 7.39
- pIC50 (E. feacium DltA): 6.96

SMILES: N#Cc1c(NCCO)cc(-c2ccc3c(c2)ncn3C2CCCCC2)c2nc[nH]c12 [Example 78]
- pIC50 (S. Agalactiae DltA): 5.27
- pIC50 (S. aureus DltA): 6.68
- pIC50 (E. feacalis DltA): 6.77
- pIC50 (E. feacium DltA): 6.23

SMILES: CN(CCO)c1cc(-c2ccc3c(c2)ncn3C2CCCCC2)c2nc[nH]c2c1C#N [Example 92]
- pIC50 (S. Agalactiae DltA): 5.09
- pIC50 (S. aureus DltA): 6.72
- pIC50 (E. feacalis DltA): 6.62
- pIC50 (E. feacium DltA): 6.22
